In paper PMC8187944, “Discovery of Potent EGFR Inhibitors With 6-Arylureido-4-anilinoquinazoline Derivatives” (Frontiers in Pharmacology, 2021):

Assays:
CAMK2α = CAMK2α (Homo sapiens, UniProt Q9UQM7); experiment: Kinase spectrum assay (ADP-Glo); settings: remaining enzyme activity at 1 μm compound
Procedure: (§3) The ADP-Glo™ kinase detection kit is a luminescence kinase detection approach that detects the amount of ADP produced by the kinase reaction. After ADP is converted into ATP, ATP can be used as the substrate of the luciferase-catalyzed reaction to generate an optical signal, which is positively correlated with kinase activity. […] The above-prepared systems were sealed and incubated at room temperature for 2 h, and 5 μl of ADP-GLO was added to terminate the kinase reaction. Then, the culture plate was sealed and incubated in a thermostatic oscillator for 40 min to fully consume the remaining ATP. The luciferase/luciferin reaction was adopted to determine the newly generated ATP level.

HER4 = HER4 (Homo sapiens, UniProt Q15303); experiment: Kinase spectrum assay (ADP-Glo); settings: remaining enzyme activity at 1 μm compound
Procedure: as §3

PKCa = PKCa (Homo sapiens, UniProt P17252); experiment: Kinase spectrum assay (ADP-Glo); settings: remaining enzyme activity at 1 μm compound
JNK1 = JNK1 (Homo sapiens, UniProt P45983); experiment: Kinase spectrum assay (ADP-Glo); settings: remaining enzyme activity at 1 μm compound
Procedure: as §3

TRKA = TRKA (Homo sapiens, UniProt P04629); experiment: Kinase spectrum assay (ADP-Glo); settings: remaining enzyme activity at 1 μm compound
Procedure: as §3

PDK1 = PDK1 (Homo sapiens, UniProt O15530); experiment: Kinase spectrum assay (ADP-Glo); settings: remaining enzyme activity at 1 μm compound
KDR = KDR (Homo sapiens, UniProt P35968); experiment: Kinase spectrum assay (ADP-Glo); settings: remaining enzyme activity at 1 μm compound
Procedure: as §3

ROCK1 = ROCK1 (Homo sapiens, UniProt Q13464); experiment: Kinase spectrum assay (ADP-Glo); settings: remaining enzyme activity at 1 μm compound
MCF-7 cells = experiment: Anti-proliferative assay, standard CCK-8 method; type: cell-based, human; settings: Homo sapiens, MCF7, mean ± SD of at least three independent experiments, read-out: Proliferative inhibition (IC50, μM) MCF-7
From the text: (§1) All reagents and solvents met the criteria of analytical reagents before use. All cancer cell lines (A549, human non-small-cell lung cell line; HT-29, human colonic adenocarcinoma cell line; MCF-7, human breast cancer cell line) were purchased from Stem Cell Bank, Chinese Academy of Sciences. […] ADP-Glo™ kinase assay kits were provided by Promega (Beijing) Biotech Co., Ltd. (Beijing, China). All kinase subtypes were supplied by SignalChem (BC, Canada).
(§2) The designed 4-anilinoquinazoline derivatives were evaluated for their antitumor bioactivities in vitro against three human tumor cell lines (A549, HT-29, and MCF-7) using the standard CCK-8 method. The CCK-8 method is based on WST-8 dye, 2-(2-methoxy-4-nitrophenyl)-3-(4-nitrophenyl)-5-(2,4-disulfophenyl)-2H-tetrazolium. WST-8 can be bio-reduced by dehydrogenases in mitochondria into orange water-soluble formazan products. Briefly, selected cancer cells in the logarithmic growth phase (1 × 10^4) were inoculated in 96-well plates and further cultured in the incubator for 24 h. First, the target compounds were diluted to different concentrations with culture medium with each dilution gradually diluted from the highest concentration solution. Second, the original culture medium was removed after the cells were completely adherent to the wall, and the compounds at various concentrations prepared above were added. In this experiment, a control group and a blank group were set: the former was treated with 0.1% DMSO solution, and the latter was treated with only the culture medium. […] A microplate reader was adopted to record the absorbance at 450 nm, and in this assay, gefitinib, erlotinib, and sorafenib were used as the reference drugs.

HT-29 cells = experiment: Anti-proliferative assay, standard CCK-8 method; type: cell-based, human; settings: Homo sapiens, mean ± SD of at least three independent experiments, read-out: Proliferative inhibition (IC50, μM) HT-29
From the text: as §1, §2

FLT3 = FLT3 (Homo sapiens, UniProt P36888); experiment: Kinase spectrum assay (ADP-Glo); settings: remaining enzyme activity at 1 μm compound
Procedure: as §3

JAK3 = JAK3 (Homo sapiens, UniProt P52333); experiment: Kinase spectrum assay (ADP-Glo); settings: remaining enzyme activity at 1 μm compound
Procedure: as §3

Syk = Syk (Homo sapiens, UniProt P43405); experiment: Kinase spectrum assay (ADP-Glo); settings: remaining enzyme activity at 1 μm compound
Procedure: as §3

MAPKAPK2 = MAPKAPK2 (Homo sapiens, UniProt P49137); experiment: Kinase spectrum assay (ADP-Glo); settings: remaining enzyme activity at 1 μm compound
Procedure: as §3

GSK3β = GSK3β (Homo sapiens, UniProt P49841); experiment: Kinase spectrum assay (ADP-Glo); settings: remaining enzyme activity at 1 μm compound
Procedure: as §3

CDK2 = CDK2 (Homo sapiens, UniProt P24941); experiment: Kinase spectrum assay (ADP-Glo); settings: remaining enzyme activity at 1 μm compound
Procedure: as §3

Chk1 = Chk1 (Homo sapiens, UniProt O14757); experiment: Kinase spectrum assay (ADP-Glo); settings: remaining enzyme activity at 1 μm compound
MELK = MELK (Homo sapiens, UniProt Q14680); experiment: Kinase spectrum assay (ADP-Glo); settings: remaining enzyme activity at 1 μm compound
Procedure: as §3

LCK = LCK (Homo sapiens, UniProt P06239); experiment: Kinase spectrum assay (ADP-Glo); settings: remaining enzyme activity at 1 μm compound
Procedure: as §3

B-raf = B-raf (Homo sapiens, UniProt P15056); experiment: Kinase spectrum assay (ADP-Glo); settings: remaining enzyme activity at 1 μm compound
Procedure: as §3

FGFR2 = FGFR2 (Homo sapiens, UniProt P21802); experiment: Kinase spectrum assay (ADP-Glo); settings: remaining enzyme activity at 1 μm compound
Procedure: (§4) The above-prepared systems were sealed and incubated at room temperature for 2 h, and 5 μl of ADP-GLO was added to terminate the kinase reaction. Then, the culture plate was sealed and incubated in a thermostatic oscillator for 40 min to fully consume the remaining ATP. The luciferase/luciferin reaction was adopted to determine the newly generated ATP level.

Abl = Abl (Homo sapiens, UniProt P00519); experiment: Kinase spectrum assay (ADP-Glo); settings: remaining enzyme activity at 1 μm compound
Procedure: as §4

ASK1 = ASK1 (Homo sapiens, UniProt Q99683); experiment: Kinase spectrum assay (ADP-Glo); settings: remaining enzyme activity at 1 μm compound
Procedure: as §3

ERK2 = ERK2 (Homo sapiens, UniProt P28482); experiment: Kinase spectrum assay (ADP-Glo); settings: remaining enzyme activity at 1 μm compound
Procedure: as §3

SRC = SRC (Homo sapiens, UniProt P12931); experiment: Kinase spectrum assay (ADP-Glo); settings: remaining enzyme activity at 1 μm compound
Procedure: as §3

NIK = NIK (Homo sapiens, UniProt Q99558); experiment: Kinase spectrum assay (ADP-Glo); settings: remaining enzyme activity at 1 μm compound
Procedure: as §3

Csk = Csk (Homo sapiens, UniProt P41240); experiment: Kinase spectrum assay (ADP-Glo); settings: remaining enzyme activity at 1 μm compound
Procedure: as §4

other protein kinases = experiment: Kinase spectrum assay (ADP-Glo), text summary for kinases other than EGFR; settings: all panel kinases other than EGFR, at 1.0 μm compound
Procedure: as §4

PKACα = PKACα (Homo sapiens, UniProt P17612); experiment: Kinase spectrum assay (ADP-Glo); settings: remaining enzyme activity at 1 μm compound
CLK3 = CLK3 (Homo sapiens, UniProt P49761); experiment: Kinase spectrum assay (ADP-Glo); settings: remaining enzyme activity at 1 μm compound
Sequence of CLK3 (P49761 whole entry): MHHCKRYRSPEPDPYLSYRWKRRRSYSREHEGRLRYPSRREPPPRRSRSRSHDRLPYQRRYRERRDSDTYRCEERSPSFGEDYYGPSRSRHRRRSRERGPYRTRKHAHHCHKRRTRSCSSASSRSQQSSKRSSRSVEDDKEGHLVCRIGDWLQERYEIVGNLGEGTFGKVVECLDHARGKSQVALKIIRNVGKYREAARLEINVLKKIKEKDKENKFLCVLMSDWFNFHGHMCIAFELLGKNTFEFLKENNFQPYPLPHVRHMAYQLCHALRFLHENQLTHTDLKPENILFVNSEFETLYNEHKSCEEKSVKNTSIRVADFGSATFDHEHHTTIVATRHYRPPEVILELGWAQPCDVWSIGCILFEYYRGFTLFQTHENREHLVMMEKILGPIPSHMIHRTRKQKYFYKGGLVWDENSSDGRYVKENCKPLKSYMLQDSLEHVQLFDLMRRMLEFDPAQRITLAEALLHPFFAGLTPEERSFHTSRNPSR
Procedure: as §3

Sequence of TRKA (P04629 33-796): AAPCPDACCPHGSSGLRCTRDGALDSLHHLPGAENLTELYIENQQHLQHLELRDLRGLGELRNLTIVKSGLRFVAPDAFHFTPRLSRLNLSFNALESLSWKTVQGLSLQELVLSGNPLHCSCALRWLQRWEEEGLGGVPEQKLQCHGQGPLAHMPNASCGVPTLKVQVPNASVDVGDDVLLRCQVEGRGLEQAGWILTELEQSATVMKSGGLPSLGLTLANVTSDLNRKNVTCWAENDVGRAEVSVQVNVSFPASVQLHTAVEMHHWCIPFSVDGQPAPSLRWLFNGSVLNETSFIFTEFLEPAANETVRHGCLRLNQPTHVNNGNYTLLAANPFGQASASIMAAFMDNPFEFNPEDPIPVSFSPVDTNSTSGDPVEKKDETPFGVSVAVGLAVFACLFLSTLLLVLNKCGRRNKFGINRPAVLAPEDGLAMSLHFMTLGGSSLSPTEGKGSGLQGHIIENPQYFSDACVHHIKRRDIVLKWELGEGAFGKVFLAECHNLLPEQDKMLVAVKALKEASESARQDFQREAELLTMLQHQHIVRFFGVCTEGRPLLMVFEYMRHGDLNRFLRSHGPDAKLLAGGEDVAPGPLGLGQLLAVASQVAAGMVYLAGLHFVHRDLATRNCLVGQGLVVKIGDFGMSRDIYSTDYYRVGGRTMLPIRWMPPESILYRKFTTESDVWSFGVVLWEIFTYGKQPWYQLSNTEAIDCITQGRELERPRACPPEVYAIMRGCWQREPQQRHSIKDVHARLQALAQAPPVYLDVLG
Sequence of ERK2 (P28482 whole entry): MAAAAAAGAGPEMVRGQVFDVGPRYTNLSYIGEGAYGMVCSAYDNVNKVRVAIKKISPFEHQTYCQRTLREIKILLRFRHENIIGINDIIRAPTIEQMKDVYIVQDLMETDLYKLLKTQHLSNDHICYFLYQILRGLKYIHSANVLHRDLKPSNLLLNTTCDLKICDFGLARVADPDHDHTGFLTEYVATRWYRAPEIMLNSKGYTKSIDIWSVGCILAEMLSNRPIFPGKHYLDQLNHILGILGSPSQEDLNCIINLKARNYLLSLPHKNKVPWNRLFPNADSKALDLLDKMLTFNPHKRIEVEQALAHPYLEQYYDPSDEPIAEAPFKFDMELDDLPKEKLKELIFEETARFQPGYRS
Sequence of FLT3 (P36888 27-993): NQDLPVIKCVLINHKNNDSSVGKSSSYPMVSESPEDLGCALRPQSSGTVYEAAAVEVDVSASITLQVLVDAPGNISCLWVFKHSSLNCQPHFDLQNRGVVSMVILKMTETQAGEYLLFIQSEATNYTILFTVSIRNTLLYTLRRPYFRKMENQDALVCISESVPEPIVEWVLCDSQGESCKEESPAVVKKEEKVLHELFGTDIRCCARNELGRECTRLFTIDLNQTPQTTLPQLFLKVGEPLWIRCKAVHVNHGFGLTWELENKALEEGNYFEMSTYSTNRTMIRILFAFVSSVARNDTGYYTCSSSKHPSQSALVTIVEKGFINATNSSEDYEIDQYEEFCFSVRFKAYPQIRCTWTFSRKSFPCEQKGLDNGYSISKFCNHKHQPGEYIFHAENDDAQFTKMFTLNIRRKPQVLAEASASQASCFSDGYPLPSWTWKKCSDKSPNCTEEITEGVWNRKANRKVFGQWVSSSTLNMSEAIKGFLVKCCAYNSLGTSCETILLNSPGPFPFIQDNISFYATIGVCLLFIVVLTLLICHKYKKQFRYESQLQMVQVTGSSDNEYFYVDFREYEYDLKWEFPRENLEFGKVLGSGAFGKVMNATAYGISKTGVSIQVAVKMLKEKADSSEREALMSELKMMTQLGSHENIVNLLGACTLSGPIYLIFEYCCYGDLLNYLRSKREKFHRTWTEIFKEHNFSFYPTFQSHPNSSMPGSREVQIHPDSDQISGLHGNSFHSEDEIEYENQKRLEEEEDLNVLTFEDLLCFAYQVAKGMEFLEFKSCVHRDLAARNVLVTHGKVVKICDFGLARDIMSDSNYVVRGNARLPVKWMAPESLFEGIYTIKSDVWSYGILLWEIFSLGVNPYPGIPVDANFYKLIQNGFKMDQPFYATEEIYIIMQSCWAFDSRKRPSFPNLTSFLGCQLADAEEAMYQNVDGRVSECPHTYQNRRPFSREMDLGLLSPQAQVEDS
Sequence of CAMK2α (Q9UQM7 whole entry): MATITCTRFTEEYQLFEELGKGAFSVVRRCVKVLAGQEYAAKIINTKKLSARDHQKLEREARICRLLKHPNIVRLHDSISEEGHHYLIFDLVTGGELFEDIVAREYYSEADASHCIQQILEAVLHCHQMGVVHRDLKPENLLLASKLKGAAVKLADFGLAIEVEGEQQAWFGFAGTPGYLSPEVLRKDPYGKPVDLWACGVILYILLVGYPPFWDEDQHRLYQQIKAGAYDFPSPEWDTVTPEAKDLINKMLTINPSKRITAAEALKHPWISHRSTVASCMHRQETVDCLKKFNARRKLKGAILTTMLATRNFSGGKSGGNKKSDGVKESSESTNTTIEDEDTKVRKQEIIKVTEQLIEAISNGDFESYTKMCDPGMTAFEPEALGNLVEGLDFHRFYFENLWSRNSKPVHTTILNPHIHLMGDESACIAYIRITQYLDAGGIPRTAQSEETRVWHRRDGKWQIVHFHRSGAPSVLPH
Sequence of FGFR2 (P21802 22-821): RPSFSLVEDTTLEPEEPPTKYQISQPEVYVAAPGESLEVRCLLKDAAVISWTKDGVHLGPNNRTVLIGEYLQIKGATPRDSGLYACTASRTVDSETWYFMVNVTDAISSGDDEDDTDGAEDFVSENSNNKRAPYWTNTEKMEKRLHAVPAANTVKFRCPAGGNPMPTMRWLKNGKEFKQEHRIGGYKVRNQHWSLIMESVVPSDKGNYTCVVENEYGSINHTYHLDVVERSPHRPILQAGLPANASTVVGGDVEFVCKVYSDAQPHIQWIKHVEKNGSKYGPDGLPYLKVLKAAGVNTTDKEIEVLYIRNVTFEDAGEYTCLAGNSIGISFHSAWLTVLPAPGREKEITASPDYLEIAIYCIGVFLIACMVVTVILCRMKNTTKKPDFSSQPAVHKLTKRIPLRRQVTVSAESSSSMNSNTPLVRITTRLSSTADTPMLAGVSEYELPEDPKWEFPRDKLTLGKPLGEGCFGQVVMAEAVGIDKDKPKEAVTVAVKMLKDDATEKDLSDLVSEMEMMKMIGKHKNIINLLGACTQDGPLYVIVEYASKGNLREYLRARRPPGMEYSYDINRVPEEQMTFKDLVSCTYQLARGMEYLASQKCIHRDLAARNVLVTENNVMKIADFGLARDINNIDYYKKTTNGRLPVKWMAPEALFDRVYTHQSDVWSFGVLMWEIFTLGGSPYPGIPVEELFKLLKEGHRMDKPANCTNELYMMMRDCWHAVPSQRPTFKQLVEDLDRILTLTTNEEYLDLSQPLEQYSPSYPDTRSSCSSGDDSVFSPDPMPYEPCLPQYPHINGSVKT
Sequence of LCK (P06239 whole entry): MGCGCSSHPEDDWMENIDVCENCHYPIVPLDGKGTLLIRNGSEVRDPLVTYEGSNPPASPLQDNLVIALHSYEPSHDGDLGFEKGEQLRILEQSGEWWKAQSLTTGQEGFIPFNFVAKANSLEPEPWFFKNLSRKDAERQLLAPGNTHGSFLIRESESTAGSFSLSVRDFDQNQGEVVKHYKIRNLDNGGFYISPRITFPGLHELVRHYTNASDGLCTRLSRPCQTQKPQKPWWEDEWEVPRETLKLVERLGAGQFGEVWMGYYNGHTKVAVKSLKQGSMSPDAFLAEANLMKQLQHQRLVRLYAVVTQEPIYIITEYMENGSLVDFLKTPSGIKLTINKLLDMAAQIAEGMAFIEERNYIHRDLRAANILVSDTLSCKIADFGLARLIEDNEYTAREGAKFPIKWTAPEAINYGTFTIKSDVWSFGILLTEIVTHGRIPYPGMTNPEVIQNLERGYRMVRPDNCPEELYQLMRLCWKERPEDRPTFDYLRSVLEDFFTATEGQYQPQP
Sequence of JNK1 (P45983 whole entry): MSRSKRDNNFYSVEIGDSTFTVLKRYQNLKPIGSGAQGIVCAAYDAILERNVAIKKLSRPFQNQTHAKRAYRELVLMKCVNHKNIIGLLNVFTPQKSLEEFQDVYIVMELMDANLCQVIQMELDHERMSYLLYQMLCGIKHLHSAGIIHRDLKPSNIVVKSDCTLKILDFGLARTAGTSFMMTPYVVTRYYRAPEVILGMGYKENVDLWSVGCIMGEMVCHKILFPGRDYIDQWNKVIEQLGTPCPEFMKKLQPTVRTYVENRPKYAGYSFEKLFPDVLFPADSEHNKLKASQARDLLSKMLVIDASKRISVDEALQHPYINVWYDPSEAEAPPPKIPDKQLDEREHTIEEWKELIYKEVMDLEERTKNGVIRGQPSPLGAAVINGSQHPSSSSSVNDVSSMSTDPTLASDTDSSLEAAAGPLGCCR

Enzyme activity % CAMK2α (CAMK2α): 72.67 ± 2.92%
Enzyme activity % HER4 (HER4): 76.85 ± 0.33%
Enzyme activity % PKCa (PKCa): 77.27 ± 1.18%
Enzyme activity % JNK1 (JNK1): 89.43 ± 2.48%
Enzyme activity % TRKA (TRKA): 83.52 ± 3.13%
Enzyme activity % PDK1 (PDK1): 74.18 ± 0.62%
Enzyme activity % KDR (KDR): 79.66 ± 2.00%
Enzyme activity % ROCK1 (ROCK1): 78.70 ± 4.00%
IC50 (MCF-7 cells): 2.81 ± 0.09 µM
IC50 (HT-29 cells): 1.72 ± 0.49 µM
Enzyme activity % FLT3 (FLT3): 92.18 ± 15.36%
Enzyme activity % JAK3 (JAK3): 82.49 ± 1.82%
Enzyme activity % Syk (Syk): 101.13 ± 9.99%
Enzyme activity % MAPKAPK2 (MAPKAPK2): 86.46 ± 7.38%
Enzyme activity % GSK3β (GSK3β): 103.71 ± 1.75%
Enzyme activity % CDK2 (CDK2): 77.40 ± 6.84%
Enzyme activity % Chk1 (Chk1): 75.98 ± 6.72%
Enzyme activity % MELK (MELK): 78.83 ± 6.55%
Enzyme activity % LCK (LCK): 86.84 ± 6.53%
Enzyme activity % B-raf (B-raf): 96.68 ± 4.29%
Enzyme activity % FGFR2 (FGFR2): 91.07 ± 8.02%
Enzyme activity % Abl (Abl): 94.51 ± 0.41%
Enzyme activity % ASK1 (ASK1): 62.27 ± 3.02%
Enzyme activity % ERK2 (ERK2): 97.31 ± 11.84%
Enzyme activity % SRC (SRC): 72.10 ± 1.83%
Enzyme activity % NIK (NIK): 76.97 ± 5.84%
Enzyme activity % Csk (Csk): 93.76 ± 4.09%
enzyme activity of the other protein kinases (other protein kinases): > 50%
Enzyme activity % PKACα (PKACα): 86.02 ± 3.75%
Enzyme activity % CLK3 (CLK3): 86.80 ± 1.90%
SMILES: O=C(Nc1ccc(Cl)c(C(F)(F)F)c1)Nc1ccc2ncnc(Nc3cccc(Br)c3)c2c1 [Compound 7i]
